According to ChEMBL document CHEMBL1126491, “Dual antagonists of platelet activating factor and histamine. 2. pyridine ring substitution of N-acetyl-4-(8-chloro-5,6-dihydro-11H-benzo[5,6]cyclohepta[1,2-b]pyridin-11-ylidene)piperidines” (Bioorg Med Chem Lett, 1993):

Key:
[1] = target: Histamine H1 receptor (Rattus norvegicus, UniProt P31390); assay: Ability to displace [3H]-pyrilamine from H1 receptor in rat brain membrane.; assay type: cell membranes
[2] = organism: Homo sapiens; assay: Concentration for inhibition of PAF-induced platelet aggregation in human platelet-rich plasma; assay type: functional

Histamine H1 receptor, sequence (P31390 whole entry): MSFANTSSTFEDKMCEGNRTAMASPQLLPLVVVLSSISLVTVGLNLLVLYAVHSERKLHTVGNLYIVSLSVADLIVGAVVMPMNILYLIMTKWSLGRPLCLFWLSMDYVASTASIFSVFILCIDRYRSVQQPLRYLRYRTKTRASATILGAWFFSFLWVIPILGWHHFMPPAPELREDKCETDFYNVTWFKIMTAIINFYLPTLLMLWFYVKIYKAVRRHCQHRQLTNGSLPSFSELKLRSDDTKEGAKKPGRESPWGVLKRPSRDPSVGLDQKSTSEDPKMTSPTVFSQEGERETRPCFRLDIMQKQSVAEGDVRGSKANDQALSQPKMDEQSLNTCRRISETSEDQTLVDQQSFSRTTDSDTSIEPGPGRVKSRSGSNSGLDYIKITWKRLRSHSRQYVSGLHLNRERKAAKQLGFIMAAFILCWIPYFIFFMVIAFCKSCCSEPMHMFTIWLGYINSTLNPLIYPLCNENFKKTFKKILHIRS

| Compound | Ki [1] [µM] | IC50 [2] [µM] |
| --- | --- | --- |
| CC(=O)N1CCC(=C2c3ccc(Cl)cc3CCc3cc(-c4ccccc4)cnc32)CC1 | 0.23 | 1.08 |
| CC(=O)N1CCC(=C2c3ccc(Cl)cc3CCc3ccc(C)nc32)CC1 | 1.03 | 0.28 |
| CC(=O)N1CCC(=C2c3ccc(Cl)cc3CCc3c(Cl)ccnc32)CC1 | 0.24 | 8 |
| CC(=O)N1CCC(=C2c3ccc(Cl)cc3CCc3cc(Br)cnc32)CC1 | 0.01 | 2.29 |
| COc1cnc2c(c1)CCc1cc(Cl)ccc1C2=C1CCN(C(C)=O)CC1 | 0.43 | 1.48 |
| CSc1cnc2c(c1)CCc1cc(Cl)ccc1C2=C1CCN(C(C)=O)CC1 | 0.21 | 0.6 |
| CC(=O)N1CCC(=C2c3ccc(Cl)cc3CCc3cc(C=O)cnc32)CC1 | 0.7 | 2.73 |
| CC(=O)N1CCC(=C2c3ccc(Cl)cc3CCc3cc(CO)cnc32)CC1 | 0.02 | 0.69 |
| CC(=O)N1CCC(=C2c3ccc(Cl)cc3CCc3ccc(O)nc32)CC1 | > 10 | 6.75 |
| CC(=O)N1CCC(=C2c3ccc(Cl)cc3CCc3c(C)ccnc32)CC1 | 0.23 | 6 |
| CC(=O)N1CCC(=C2c3ccc(Cl)cc3CCc3cc(O)cnc32)CC1 | 1.58 | 4.13 |

Second part, the molecule after the results:

| Ki [1] [µM] | IC50 [2] [µM] | Compound |
| --- | --- | --- |
| > 10 | 6 | COc1ccc2c(n1)C(=C1CCN(C(C)=O)CC1)c1ccc(Cl)cc1CC2 |
| > 10 | 3.04 | COc1ccnc2c1CCc1cc(Cl)ccc1C2=C1CCN(C(C)=O)CC1 |
| 0.1 | 0.94 | CC(=O)N1CCC(=C2c3ccc(Cl)cc3CCc3cc(Cl)cnc32)CC1 |
| > 10 | ≥ 50 | CC(=O)N1CCC(=C2c3ccc(Cl)cc3CCc3c(O)ccnc32)CC1 |
| 0.04 | 1.07 | CC(=O)N1CCC(=C2c3ccc(Cl)cc3CCc3cc(C(C)O)cnc32)CC1 (centres undefined) |
| 1.16 | 2.08 | CC(=O)c1cnc2c(c1)CCc1cc(Cl)ccc1C2=C1CCN(C(C)=O)CC1 |
| 1.36 | 0.61 | CC(=O)N1CCC(=C2c3ccc(Cl)cc3CCc3ccc(Cl)nc32)CC1 |
| 0.07 | 0.34 | CC(=O)N1CCC(=C2c3ccc(Cl)cc3CCc3cc(C)cnc32)CC1 |
| – | 0.61 | CC(=O)N1CCC(=C2c3ccc(Cl)cc3CCc3cccnc32)CC1 [SCH-37370] |
